This is an account of results in PMC4815073, “Targeting of tubulin polymerization and induction of mitotic blockage by Methyl 2-(5-fluoro-2-hydroxyphenyl)-1H-benzo[d]imidazole-5-carboxylate (MBIC) in human cervical cancer HeLa cell” (Journal of Experimental & Clinical Cancer Research : CR, 2016).

One data set concerns A549 cells. Put plainly: MTT cytotoxicity assay, A549. The note with it: for IC50: Homo sapiens, MTT. The format is cell-based, human. The text has this: The human cervical cancer cell-line, HeLa (CCL-2.2; ATCC, Manassas, VA), HCT-116 (CCL-247; ATCC, Manassas, VA), A549 (CCL-185; ATCC, Manassas, VA), HepG-2 (HB-8065; ATCC, Manassas, VA) and WRL-68 (CL-48; ATCC, Manassas, VA), were obtained from American Type Culture Collection (ATCC). HeLa, A549, HepG2 and WRL68 cells were maintained in Dulbecco’s Modified Eagle Medium (DMEM, Life Technologies, Inc, Rockville, MD). HCT-116 was obtained in McCoy’s 5a Medium Modified (Life Technologies, Inc, Rockville, MD) supplemented with 10 % fetal bovine serum and 1 % penicillin/streptomycin. Cells were incubated at 37 °C in a humidified cell culture 5 % CO2 incubator. Cells were passaged until reaching 70-80-% confluency for experimental purposes.
Cytotoxicity of MBIC was estimated by MTT assay. Briefly, 1 × 10^4 cells/well were seeded in a 96-well plate and incubated at 37 °C in 5 % CO2. After 24 h, cells were treated with different concentrations (0.02, 0.04, 0.1, 0.2, 0.4, 0.8, 1.5, 3, 6, 12, 25, 50 μM) of MBIC. 0.01 % DMSO was used as vehicle control. Cells were incubated for 24 and 48 h at 37 °C. Subsequently, 50 μl/well of 3-(4,5-dimethylthiazol-2-yl)-2,5-diphenyltetrazolium bromide (MTT, 2 mg/ml) was added and incubated for 2 h. After the incubation, the media was discarded and 100 μl DMSO was replaced into each well to dissolve the formazan crystal. The colorimetric assay was quantified at 570 nm wavelength using Chameleon V microplate reader (Hidex, Turku, Finland). The anti-proliferation activity of MBIC was expressed as an IC50 value. The percentage of cell viability was calculated as described previously.
(Tetrazolium dyes change colour on reduction, which living cells bring about.)

Data set [1] relates to HeLa cells. Put plainly: Cell cycle analysis (PI, flow cytometry). The format is cell-based, human. The note with it: 24 h. Here is the method:
Cell cycle analysis was performed using propidium iodide (PI). Briefly, cells were seeded in a 25 cm^2 flask, then 60 % confluent cells were treated with MBIC for 24 and 48 h. Following incubation, the cells were harvested and spun down for 5 min at 2000 rpm. The supernatant was removed and cells were then fixed in 1 ml of ice-cold 70 % ethanol overnight at -80 °C. Fixed cells were washed with 1 ml 1X PBS and stained in 500 μl of PI containing 5 μg/ml DNase-free RNase for 30 min at room temperature in total darkness. DNA content of the cell was analyzed by flow cytometry. The percentage of G0-G1, S and G2-M cells were then calculated using Fluorescence-activated cell sorting (FACS) software (BD Biosciences).
Background: In flow cytometry, cells or beads pass a laser one at a time.

Data set [2] concerns Cyclin B1, CDK1, BubR1, Aurora B. Description: Western blot, cell-cycle related proteins in HeLa cells. The format is cell-based, human. Conditions: HeLa, 0.21, 0.42 and 1 μM, 24 h. Here is the method:
(§1) Western blot analysis was used to investigate protein expression levels. It was adopted by Suresh Kumar et al.. Briefly, 1 × 10^5 cells/flask was seeded and treated with MBIC in a dose-dependent manner for 24 h. Cells treated with colchicine and nocodazole served as positive controls. Cells were collected and lysed in RIPA buffer supplemented with a 10 μl protease inhibitor cocktail, sodium orthovanadate, and PMSF (Santa Cruz, USA). The lysate was stored at −80 °C until further use. A 40 μg of sample protein was resolved on 10 % SDS-PAGE and transferred to a polyvinylidene difluoride (PVDF) membrane (Merck Millipore, USA). The membrane was blocked in 5 % BSA for 1 h at room temperature following an overnight incubation at 4 °C with the following primary antibodies: Anti-Cyclin B1, anti-CDK1, anti-BubR1, anti-Aurora B, anti-cleaved PARP, anti-cleaved caspase-3/7/9, anti-Bcl-2 and anti-Bax (1:1000) (Cell Signaling Technology (CST), USA), mouse anti β-actin (1:40000) (Sigma-Aldrich, USA) antibodies.
(§2) Membranes were washed with 1X TBS-T prior to incubating with HRP-conjugated goat anti-mouse or anti-rabbit secondary antibodies for 2 h at room temperature. Membranes were washed 3 times with 1X TBS-T to remove excess antibodies before the proteins-antibody complex was detected with Amersham ECL prime western blotting detection reagent (GE Healthcare, USA). Western blot images were quantified and processed by ImageJ software (NIH, USA).
A general note: A western blot detects proteins with antibodies after separation by electrophoresis.

Data set [3] concerns Bcl-2, Bax, cleaved caspase-3/7/9, cleaved PARP. Put plainly: Western blot, mitochondrial-dependent apoptotic proteins in HeLa cells. The format is cell-based, human. The note with it: HeLa, 0.21, 0.42 and 1 μM, 24 h. Here is the method:
as §1, §2

The test system of data set [4] is HeLa cells. Put plainly: Multiparameter cytotoxicity assay (Cellomics HCS). The format is cell-based, human. The note with it: 24 h. Here is the method:
The critical apoptotic events in cervical cancer including cell permeability, mitochondrial membrane potential (MMP), cytochrome c release and total nuclear intensity after treatment with MBIC were determined using the Cellomics Multiparameter Cytotoxicity 3 Kit. Briefly, 1 × 10 ^4 cells/well were seeded in a 96-well plate and incubated for 24 h prior to treatment with MBIC at various concentrations. At 24 h post treatment, cells were stained with cell permeability and MMP dye and further incubated for 1 h. Stained cells were fixed and permeabilized with 4 % formaldehyde and 0.1 % Triton X-100 in PBS, respectively. Cells were washed twice with 1X PBS prior to blocking with 3 % bovine serum albumin.
Cells were rinsed twice with Wash Buffer I (1X PBS) and incubated with 50 μl/well of Cytochrome c primary antibody. After 60 min, the plate was washed with 1X Wash Buffer and subsequently, 50 μl of goat anti-mouse secondary antibodies conjugated with DyLight 649 were added into each well. Cells were rinsed twice with Wash Buffer I (1X PBS). Hoechst 33342 was added into the staining solution to stain the nucleus. Stained cells in the 96-well plates were analyzed using ArrayScan High Content Screening (HCS) system (Thermo Scientific, USA).

The test system of data set [5] is two breast cancer cell lines. The arrangement: method as in earlier work. The note with it: cited from earlier work.

As for `COC(=O)c1ccc2[nH]c(-c3cc(F)ccc3O)nc2c1` [MBIC, Methyl 2-(5-fluoro-2-hydroxyphenyl)-1H-benzo[d]imidazole-5-carboxylate], the IC50 in the data set with A549 cells (A549, 24 hours) was determined as 1290 ± 70 nM. In the data set on A549 cells (A549, 48 hours), this molecule gave an IC50 of 530 ± 100 nM. Besides, the “SI (Selectivity Index)” value with A549 cells (IC50 WRL-68 / IC50 A549, 24 hours) worked out at 7.82. Also, in the data set on A549 cells (IC50 WRL-68 / IC50 A549, 48 hours), the “SI (Selectivity Index)” value was 13.50. The molecule also registered a G2-M cell population in the data set with HeLa cells [1] (0.21 μM) of 26.7 ± 6.3%. Besides, the G2-M cell population with HeLa cells [1] (1 μM) is recorded as 42.8 ± 6.4%. In data set [2], the “Aurora B protein level (Western blot)” value is “down-regulated”, the “BubR1 protein level (Western blot)” value is recorded as “up-regulated”, the “CDK1 protein level (Western blot)” value is on record as “up-regulation” and the “Cyclin B1 protein level (Western blot)” value was “up-regulation”. In data set [3], the “Bax protein level (Western blot)” value is “up-regulation”, the “Bcl-2 protein level (Western blot)” value was “down-regulation”, the “cleaved (activated) caspase-3/7/9 level (Western blot)” value is “increased” and the “cleaved PARP level (Western blot)” value is given as “increased level”. In the data set with HeLa cells [4] (0.2 and 0.4 μM), the cytochrome c release entry was “considerable elevation”. Further, in the data set with HeLa cells [4] (0.2 and 0.42 μM), the “cell number (loss of cells)” value was “dose-dependent loss of cells”; the membrane permeability result is recorded as “increase of membrane permeability”; the “mitochondrial membrane potential (MMP, Δψm)” value is reported as “exhaustion of MMP”. Further, the “cytotoxic effect compared to cisplatin” value in data set [5] is listed as “potent cytotoxic effect”.

What is called IC50 is the concentration at which inhibition is half-maximal. A higher IC50 goes with weaker potency in that assay.
